The text below walks through data of patent EP4778929A1, “NOVEL TYPE I TOPOISOMERASE INHIBITOR, AND PREPARATION METHOD THEREFOR AND USE THEREOF” (priority 2023, dated 2025).

The test system of one test is HCT116 cells. As to the kind of experiment: Inhibition of cell proliferation by CTG (CellTiter-Glo) luminescence assay. The format is cell-based. The following applies: Homo sapiens, HCT-116, 72 h, read-out: HCT116, IC50. In outline:
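Nine-point 1:3 dilutions applied to HCT116 cells (2 000/well, McCoy's 5a + 10 % FBS) for 72 h at 37 °C, final DMSO 0.25 %. Viability read by CellTiter-Glo luminescence; % inhibition versus DMSO controls fitted to four-parameter logistic for IC50.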
A general note: In ATP-based viability assays light output follows the ATP content of the culture.

For test [1], the system named is Human colon cancer HCT116 cells. As to the kind of experiment: Subcutaneous xenograft model of human colon cancer HCT-116 cells. The format is in vivo, BALB/c nude mice. The following applies: day 21 post-treatment, 5 mg/kg, IV, BIW×3W. How it is done:
Test Example 4. Pharmacodynamic Evaluation of Compound 2, Compound 250, and Compound 253 in a Subcutaneous Xenograft Model of Human Colon Cancer HCT-116 Cells in BALB/c Female Nude Mice
Human colon cancer HCT116 cells were cultured in vitro as monolayers in McCoys 5a medium supplemented with 10% fetal bovine serum and 1% penicillin/streptomycin/amphotericin B at 37 °C in a 5% CO2 incubator. Cells were routinely passaged twice a week using trypsin-EDTA digestion. When cells reached 80%-90% confluence and the required cell number was achieved, cells were harvested. HCT116 cells (0.1 mL, 5×10^6 cells) were subcutaneously inoculated into the right dorsal region near the upper forelimb of each mouse (BALB/c nude mice, female, 6-8 weeks old). Treatment was initiated when the average tumor volume reached approximately 158 mm^3. Tumor volume was measured twice weekly. At the end of the experiment, the tumor growth inhibition rate (TGI) was calculated as: TGI (%) = [1 - (average tumor volume at the end of treatment in a particular group - average tumor volume at the start of treatment in that group) / (average tumor volume at the end of treatment in the vehicle control group - average tumor volume at the start of treatment in the vehicle control group)] × 100%.
(§1) Experimental Groups and Dosing Regimen:
• 1, Vehicle control group • 2, Compound 2, 5 mg/kg, IV, BIW×3W • 3, Compound 250, 5 mg/kg, IV, BIW×3W • 4, Compound 253, 5 mg/kg, IV, BIW×3W
A general note: A xenograft is tissue or cells of one species grown in another, often human tumour cells in immunodeficient mice.

For test [2], the system named is Human colon cancer CR00090 cells. In words: CR00090 human colon cancer model (subcutaneous). The format is in vivo, NPSG mice. The following applies: day 28 post-treatment, 5 mg/kg, IV, BIW×4W. Here is the method:
Test Example 5: Pharmacodynamic Evaluation of Compound 117, Compound 250, and Compound 253 in the CR00090 Human Colon Cancer Model
Human colon cancer CR00090 cells were thawed, counted, and mixed with Matrigel at a 1:1 ratio. Then, 0.1 mL (5×10^5 cells) of CR00090 cells were subcutaneously inoculated into the right dorsal region near the upper forelimb of each mouse (NPSG mice, female, 6-8 weeks old). Treatment was initiated when the average tumor volume reached approximately 84 mm^3. Tumor volume was measured twice weekly. At the end of the experiment, the tumor growth inhibition rate (TGI) was calculated as: TGI (%) = [1 - (average tumor volume at the end of treatment in a particular group - average tumor volume at the start of treatment in that group) / (average tumor volume at the end of treatment in the vehicle control group - average tumor volume at the start of treatment in the vehicle control group)] × 100%.
as §1
• 1, Vehicle control group • 2, Compound 117, 5 mg/kg, IV, BIW×4W • 3, Compound 250, 5 mg/kg, IV, BIW×4W • 4, Compound 253, 5 mg/kg, IV, BIW×4W

Where only a bound is given, the exact number is not on record here.

What is called IC50 is the midpoint of a concentration-inhibition curve.

Take `CC[C@@]1(O)C(=O)OCc2c1cc1n(c2=O)Cc2c-1c(=O)c1cc(F)cc(C)c1n2C` [Example 2, (S)-4-ethyl-8-fluoro-4-hydroxy-10,11-dimethyl-1,12-dihydro-14H-pyrano[3,4:6,7]indolizino[2,1-b]quinoline-3,6,14(4H,11H)-trione]: in the test with HCT116 cells, the IC50 is less than 20 nM. The TGI in test [1] is reported as 81.9%. In addition, the tumor volume in test [1] (vehicle control 1146 mm^3) was determined as 335 mm^3.

`CC[C@@]1(O)C(=O)OCc2c1cc1n(c2=O)Cc2c-1c(=O)c1cc(F)ccc1n2CCN(C)C1CCCC1` [Example 117]: in the test with HCT116 cells, the half-inhibitory concentration (IC50) is less than 20 nM. Besides, the TGI in test [2] is listed as 82.4%. This compound also returned a tumor volume in test [2] (vehicle control 1093 mm^3) of 262 mm^3.
